Test results as given in patent US20200369674A1, “ANTI-PAIN COMPOUND AND PREPARATION METHOD THEREOF” (LUNAN PHARMACEUTICAL GROUP CORPORATION, priority 2017, published 2020).

Legend:
ICR mice [1] = experiment: Acetic acid writhing test; assay type: in vivo; set-up: key to Inhibition rate (%): Symbol “—” indicates that the data obtained at this dose was not significantly different from the vehicle control group; conditions: 1 mg/kg intragastric, 0.6% acetic acid ip two hours after administration
Procedure: (§1) ICR mice, 18-22 g, half of them being male and the other half being female, provided by the Department of Laboratory Animals, Peking University (License No.: SCXK (Beijing) 2016-0010).
ICR mice, half of them being male and the other half being female, were randomly grouped, 8 mice per group. Vehicle control group (double-distilled water), ibuprofen control group, and groups for samples to be tested (the compounds and doses thereof were shown in Table 2) were set. All drugs were dissolved in double-distilled water before administration, and given by intragastric administration at predetermined doses. Two hours after the administration, the mice were intraperitoneally injected with 0.6% acetic acid solution (10 ml/kg, ip), and the number of times the mice writhed (abdomen depressed, buttock raised, body elongated) was recorded within 5-20 minutes. The inhibition rate % of compound on writhing pain in mice was calculated according to the following formula.
Inhibition rate %=(number of writhing times in vehicle control group−number of writhing times in test group)/number of writhing times in vehicle control group×100

ICR mice [2] = experiment: Formalin experiment; assay type: in vivo; conditions: Mus musculus, po, 2 h; 1 mg/kg intragastric, 2.5% formalin two hours after administration, phase II 10-60 minutes; read-out: Phase II pain inhibition rate (%)
Procedure: as §1
ICR mice, half of them being male and the other half being female, were randomly grouped, 8 mice per group. Vehicle control group (double-distilled water) and groups for samples to be tested were set, in which the compounds and doses thereof were shown in Table 3. All drugs were dissolved in double-distilled water before administration, and given by intragastric administration at predetermined doses. Two hours after administration, the mice were injected with 20 ul of 2.5% formalin solution in the right hind foot, and the time (s) of licking or biting foot was recorded as an index of pain response, in which 0-5 minutes was phase I, 10-60 minutes was phase II, and the total observation time was 60 minutes. The phase II pain inhibition rate of compound in mice was calculated according to the following formula:
Inhibition rate %=(time of licking or biting foot in vehicle control group−time of licking or biting foot in test group)/time of licking or biting foot in vehicle control group×100

CCI rats [3] = experiment: Mechanical stimulation paw withdrawal threshold (MWT) in CCI rats; assay type: in vivo, SD rats; conditions: for inhibition rate (absolute %): PTE % vs vehicle; for MWT: mean±SEM; for inhibition rate (relative %): relative to sham minus vehicle
Procedure: (§2) SD rats, body weight 180 g-220 g, half of them being male and the other half being female, provided by the Department of Laboratory Animals, Peking University. The rats were raised in a standard environment with temperature of 22±0.5° C. and relative humidity of 55±5%, 12 h/12 h light-dark cycle, and fed with standard feed.
(§3) Rat was anesthetized with pentobarbital sodium (60 mg/kg, i.p.), the right hind limb was surgically shaved, fixed in the prone position, a longitudinal incision was made along the middle of the right hind limb of the rat, the muscle was bluntly separated, the sciatic nerve was exposed, and the sciatic nerve bifurcate proximal end was loosely ligated with 4-0 silk suture for 4 times, with an interval of about 1 mm each time, in which the degree of tightness was suitable when it was observed that the right hind leg was slightly shaken. After ligation, the muscle and skin were sutured in sequence. For the sham-operated group, the sciatic nerve was only exposed, but not ligated. The success of modeling was determined by observing whether the hind limb of the rat's operation side was closed, slightly valgus and often vacated, and by measuring the mechanical stimulation paw withdrawal threshold and the thermal stimulation paw withdrawal latency of the rat.
(§4) Before surgery, the mechanical stimulation paw withdrawal thresholds and the thermal stimulation paw withdrawal latencies in the rats were determined, and the rats were grouped as: sham operation group (sham), vehicle group (double-distilled water, i.g.), DXL-A-22 group (2 mg/kg, i.g.), DXL-A-24 group (1 mg/kg, i.g.), and Gabapentin group (100 mg/kg, i.g.). All compounds and drugs were dissolved in double-distilled water, and given by intragastric administration at 1 mL/100 g. From the first day after surgery, the administration was carried out every day, and the mechanical stimulation paw withdrawal threshold and the thermal stimulation paw withdrawal latency were measured 2 hours after administration.
The mechanical stimulation paw withdrawal threshold (MWT) of rats was detected by von Frey electronic pain tester. The measurement was carried out on the days 5, 7 and 14 after operation. The rats were placed in a transparent plexiglass box (whose bottom was a wire mesh with a gap of 1 mm^2) to adapt to the environment for 30 min. After the rats had no exploration action, the von Frey electronic pain tester was used to stimulate the middle position of paw at the operation side of the rat, and the maximum force caused by rat paw withdrawal response (i.e., MWT) was recorded. The inhibition rate of the compound was calculated according to the following formula:
Absolute increase rate (i.e., PTE %): PTE %=(MWT of test group−MWT of vehicle group)/MWT of vehicle group×100 (1)
Relative increase rate: Inhibition rate %=(MWT of test group−MWT of vehicle group)/(MWT of Sham operation group−MWT of vehicle group)×100 (2)

CCI rats [4] = experiment: Thermal stimulation paw withdrawal latency (PWL) in CCI rats; assay type: in vivo, SD rats; conditions: for PWL: hot plate 50.5° C., cut-off 14s, mean±SEM
Procedure: as §2, §3, §4
The thermal stimulation paw withdrawal latency (PWL) was measured by a hot plate method. The measurement was carried out on the days 5, 7 and 14 after operation. The temperature of the hot plate was 50.5° C. Timing started when the rat was placed on the hot plate, and stopped when the shaking and foot licking responses of the rat appeared, and this time was the PWL of the rat. The hot plate cut-off time was 14s, and the percentage of analgesia (i.e., MPE %) was calculated according to formula (3):
MPE %=(PWL of test group−PWL of vehicle group)/(cut-off time−PWL of vehicle group)×100 (3)

[5] = 2 mg/kg i.g. daily, Day 5 after operation, section 3.1
[6] = 2 mg/kg i.g. daily, Day 7 after operation, section 3.1
[7] = 2 mg/kg i.g. daily, Day 14 after operation, section 3.1
[8] = 2 mg/kg i.g. daily, Day 5 after operation, section 3.2
[9] = 2 mg/kg i.g. daily, Day 7 after operation, section 3.2
[10] = 2 mg/kg i.g. daily, Day 14 after operation, section 3.2
[11] = 1 mg/kg i.g. daily, Day 5 after operation, section 3.3
[12] = 1 mg/kg i.g. daily, Day 7 after operation, section 3.3
[13] = 1 mg/kg i.g. daily, Day 14 after operation, section 3.3
[14] = 1 mg/kg i.g. daily, Day 5 after operation, section 3.4
[15] = 1 mg/kg i.g. daily, Day 7 after operation, section 3.4
[16] = 1 mg/kg i.g. daily, Day 14 after operation, section 3.4

Br.Brc1ccc(N2CC[N+]3(CCCC3)CC2)cc1 [DXL-A-22, 8-(4-bromophenyl)-5,8-diazaspiro[4.5]decan-5-ium bromide]
Inhibition rate (%) (ICR mice [1]): — | inhibition in vivo at 1 mg/kg (ICR mice [2]): 52.6% | inhibition rate (absolute %) (CCI rats [3]; [5]): 76.88% | MWT (CCI rats [3]; [5]): 19.28 ± 1.44**/ | inhibition rate (relative %) (CCI rats [3]; [5]): 31.01% | inhibition rate (absolute %) (CCI rats [3]; [6]): 116.83% | MWT (CCI rats [3]; [6]): 22.16 ± 0.79**/ | inhibition rate (relative %) (CCI rats [3]; [6]): 43.18% | inhibition rate (absolute %) (CCI rats [3]; [7]): 108.81% | MWT (CCI rats [3]; [7]): 22.05 ± 0.74**/ | inhibition rate (relative %) (CCI rats [3]; [7]): 41.26% | PWL (CCI rats [4]; [8]): 10.84 ± 0.32**/ | MPE(%) (CCI rats [4]; [8]): 51.61% | PWL (CCI rats [4]; [9]): 11.28 ± 0.64**/ | MPE(%) (CCI rats [4]; [9]): 58.91% | PWL (CCI rats [4]; [10]): 11.19 ± 0.52**/ | MPE(%) (CCI rats [4]; [10]): 55.61%

FC(F)(F)c1ccc(N2CC[N+]3(CCCC3)CC2)cc1.[Br-] [DXL-A-24, 8-(4-(trifluoromethyl)phenyl)-5,8-diazaspiro[4.5]decan-5-ium bromide]
Inhibition rate (%) (ICR mice [1]): — | inhibition in vivo at 1 mg/kg (ICR mice [2]): 50.2% | inhibition rate (absolute %) (CCI rats [3]; [11]): 75.78% | MWT (CCI rats [3]; [11]): 20.32 ± 1.09**/ | inhibition rate (relative %) (CCI rats [3]; [11]): 35.35% | inhibition rate (absolute %) (CCI rats [3]; [12]): 117.94% | MWT (CCI rats [3]; [12]): 22.84 ± 1.64**/ | inhibition rate (relative %) (CCI rats [3]; [12]): 47.89% | inhibition rate (absolute %) (CCI rats [3]; [13]): 75.09% | MWT (CCI rats [3]; [13]): 20.31 ± 1.57**/ | inhibition rate (relative %) (CCI rats [3]; [13]): 33.24% | PWL (CCI rats [4]; [14]): 11.29 ± 0.57**/ | MPE(%) (CCI rats [4]; [14]): 52.62% | PWL (CCI rats [4]; [15]): 12.35 ± 0.55**/ | MPE(%) (CCI rats [4]; [15]): 72.36% | PWL (CCI rats [4]; [16]): 13.26 ± 0.43**/ | MPE(%) (CCI rats [4]; [16]): 88.79%
